Measured values reported in patent US20240109915A1, “NOVEL ACC INHIBITORS” (Pfizer Inc., priority 2022, published 2024).

Legend:
[1] = target: recombinant human ACC1 (rhACC1) (Homo sapiens (Human), UniProt Q13085); assay: Transcreener ADP detection FP assay, direct inhibition of rhACC1; assay type: biochemical; conditions: Geomean IC50, n ≥ 2 unless * then n = 1; 50 μM ATP, 30 μM acetyl-CoA
SZ95 sebocytes = assay: Radiometric measurement of de novo lipogenesis in cultured human sebocytes; assay type: cell-based; conditions: Geomean IC50, n>2 unless * then n=1, 14C acetate incorporation into lipids (DNL)
Procedure: SZ95 sebocytes were grown in Human Sebocyte Growth Medium (HSGM) containing Sebomed® basal medium (Sigma-Aldrich, F8205) supplemented with 10% heat-inactivated fetal bovine serum (Gibco, 10100-147), 1% penicillin/streptomycin (Gibco, 15070-063), 1 mM calcium chloride (Fisher, BP9742-10X5) and 5 ng/mL recombinant human epidermal growth factor (Gibco, PHG0311). At 90% confluence, cells were washed with PBS and then detached with 0.05% Trypsin-EDTA (Gibco, 25300054). Prior to starting the assay, cells were centrifuged and resuspended in HSGM containing 5% charcoal-stripped serum (Life Technologies, 12676-029) instead of 10% heat-inactivated fetal bovine serum. Cells were added to 24-well plates at a density of 0.25×10^6 cells/well and incubated overnight at 37° C. to allow the cells to adhere to the culture plate. Cells were then treated with a dose response of compound (30, 1, 0.03, 0.006, 0.0009, 0.0002, and 0.00003 μM) with each concentration tested in duplicate. Briefly, compounds were dissolved in DMSO stocks and diluted 1:1000 into HSGM with charcoal-stripped media. The vehicle control wells were treated with 0.1% DMSO. After a 1-hour preincubation with compound or vehicle at 37° C., 0.25 μCi ^14C sodium acetate (American Radiolabeled Chemicals: ARC, 0173A) was added to each well. Plates were incubated for an additional two hours at 37° C. At the end of the incubation period, cells were removed from incubator, placed on ice, and then washed twice with ice-cold PBS to remove free ^14C-sodium acetate. Plates were sealed and stored at −20° C. until analysis. To induce lysis, 125 μL of mammalian protein extraction reagent (MPER; Fisher, 78501) was added to each well. Plates were shaken for 1 hour at room temperature and lysates transferred to individual 2 mL polypropylene tubes. Wells were then washed with 175 μL PBS, which was added to lysates. A chloroform:methanol solution (1:1 v/v, 450 μL) was added to each tube. All tubes were vortexed for 10 seconds and centrifuged at 14,000×g for 5 minutes at room temperature to separate the aqueous and organic phases. A 25 μL aliquot was removed from the bottom organic layer of each sample and added to 6 mL Optiphase Supermix scintillation fluid (PerkinElmer, 1200-439). Counts of ^14C were assessed by scintillation counting. DNL (counts of ^14C incorporated into lipids) was expressed as a percentage for compound treated cells relative to the vehicle control. IC50 values were determined using a non-linear regression (four parameter with variable slope) in GraphPad Prism.

[2] = Metabolite profile in liver microsomes, hepatocytes, recombinant human P450 and UGT enzymes, and animal plasma; assay type: in vitro ADME, mouse, rat, rabbit, dog, monkey; conditions: recombinant human cytochrome P450 and UGT enzymes, plasma from animals
Procedure: The metabolite profile of compound of Example 14 was evaluated in liver microsomes and hepatocytes (mouse, rat, rabbit, dog, monkey, and human), recombinant human cytochrome P450 enzymes, recombinant human UGT enzymes, and plasma from animals (mouse, rat, and dog).

| IC50 [1] [nM] | IC50 (SZ95 sebocytes) [nM] | metabolite profile [2] | Compound |
| --- | --- | --- | --- |
| 2.2 | 5.9 | oxidation and glucuronidation | CCOc1cc(C(=O)N2CCC3(CC2)CC(=O)c2nc(C(C)(C)C)sc2C3)cc2c(C)nn(C)c12 [Example 14, 2-(tert-butyl)-1′-(7-ethoxy-1,3-dimethyl-1H-indazole-5-carbonyl)-5H-spiro[benzo[d]thiazole-6,4′-piperidin]-4(7H)-one] |
| 9.6 | 15.6 | – | Cc1cc(C(=O)N2CCC3(CC2)CC(=O)c2nc(C(C)(C)C)sc2C3)cc2cc[nH]c12 [Example 17, 2-(tert-butyl)-1′-(7-methyl-1H-indole-5-carbonyl)-5H-spiro[benzo[d]thiazole-6,4′-piperidin]-4(7H)-one] |
| 9.9 | 21.1 | – | COc1cnc2c(C)cc(C(=O)N3CCC4(CC3)CC(=O)c3nc(C(C)(C)C)sc3C4)cc2c1 [Example 19, 2-(tert-butyl)-1′-(3-methoxy-8-methylquinoline-6-carbonyl)-5H-spiro[benzo[d]thiazole-6,4′-piperidin]-4(7H)-one] |
| 5.1 | 38.1 | – | COc1cc(C(=O)N2CCC3(CC2)CC(=O)c2nc(C(C)(C)C)sc2C3)c2[nH]ncc2c1C [Example 33, 2-(tert-butyl)-1′-(5-methoxy-4-methyl-1H-indazole-7-carbonyl)-5H-spiro[benzo[d]thiazole-6,4′-piperidin]-4(7H)-one] |
| 4.9 | 14.2 | – | CNc1ccc2c(C)cc(C(=O)N3CCC4(CC3)CC(=O)c3nc(C(C)(C)C)sc3C4)cc2n1 [Example 38, 2-(tert-butyl)-1′-(5-methyl-2-(methylamino)quinoline-7-carbonyl)-5H-spiro[benzo[d]thiazole-6,4′-piperidin]-4(7H)-one] |
| 3.1 | 15.9 | – | Cc1cc(C(=O)N2CCC3(CC2)CC(=O)c2nc(C(C)(C)C)sc2C3)cc2c(Cl)c[nH]c12 [Example 42, 2-(tert-butyl)-1′-(3-chloro-7-methyl-1H-indole-5-carbonyl)-5H-spiro[benzo[d]thiazole-6,4′-piperidin]-4(7H)-one] |
| 4.4 | 30.8 | – | COc1cc(C(=O)N2CCC3(CC2)CC(=O)c2nc(C(C)(C)C)sc2C3)cc2[nH]ccc12 [Example 61] |
| 4.1 | 16.7 | – | Cn1ccc2c(Cl)cc(C(=O)N3CCC4(CC3)CC(=O)c3nc(C(C)(C)C)sc3C4)cc21 [Example 79] |
| 11.7 | 47.2 | – | COc1cc(C(=O)N2CCC3(CC2)CC(=O)c2nc(C(C)(C)C)sc2C3)cc(OC)c1C [Example 81] |
| 1.8 | 16.2 | – | CNc1nc2c(C)cccc2cc1C(=O)N1CCC2(CC1)CC(=O)c1nc(C(C)(C)C)sc1C2 [Example 97] |
| 3.9 | 10 | – | COc1cc(C(=O)N2CCC3(CC2)CC(=O)c2nc(C(C)(C)C)sc2C3)cc2c(C3CC3)nccc12 [Example 99] |
